According to publication PMC8421423, “Cellular model system to dissect the isoform-selectivity of Akt inhibitors” (Nature Communications, 2021):
Several values for one entry are separate records, joined by “and”; a condition that tells them apart may be missing. Equal entries are not always repeated. Where two headings read alike, the source gives them in different places.

Legend:
[1] = CellTiter-Glo cell viability assay; type: cell-based, murine; conditions: mouse, parental Ba/F3 cells, CTG, parental, single replicates
parental Ba/F3 cells = test: CellTiter-Glo cell viability assay; type: cell-based, murine; conditions: for cell viability: CTG, parental
pAkt2 = test: Western blot analysis, PANC1 cells; type: cell-based, human; conditions: PANC1, 24-h treatment
Experimental: Cells were seeded into six-well tissue culture plates (Sarstedt) (BaF3 myr-Akt1/2/3: 10^6 cells/well, PANC1: 250.000 cells/well). […] Cell lysis was initiated by addition of 100 μL RIPA buffer (Cell Signaling Technology) per well supplemented with phosphatase and protease inhibitor cocktails (Sigma) followed by incubation on ice for 20 min. Cells were then harvested by scraping (PANC1) or centrifugation (BaF3). Whole cell lysates were cleared by centrifugation at 14,000×g/4 °C for 10 min and transferred into fresh, pre-cooled microcentrifuge tubes. Protein concentrations were determined using the Pierce BCA protein assay (Thermo) as per manufacturer’s instructions. Equal amounts of protein were separated by SDS-PAGE and transferred to Immobilon-FL PVDF membranes (Merck Millipore) using Pierce™ 1-step transfer buffer (Thermo) and the Pierce™ Power Blotter (Thermo). Membranes were washed for 5 min with ddH2O, blocked with Intercept®Blocking Buffer TBS (Li-Cor) for 1 h at room temperature, and then incubated with primary antibodies diluted in Intercept®Blocking Buffer TBS overnight at 4 °C with gentle agitation. On the next day, the membranes were washed three times with TBS-T (50 mM Tris, 150 mM NaCl, 0.05 % Tween 20, pH 7.4) for 5 min before being incubated with secondary antibodies diluted in Intercept®Blocking Buffer TBS for 1 h at room temperature with gentle agitation. Finally, the membranes were washed three times for 5 min with TBS-T and then scanned using an Odyssey®CLx imaging system (Li-Cor).

Akt1 [2] = biological target: T1, Akt1 (Homo sapiens, UniProt P31749); test: Cellular thermal shift assay (CETSA) in PANC1 cells; type: cell-based; set-up: purchased ProQinase #1379-0000-2; conditions: CETSA PANC1, 1 µM
Experimental: (§1) Cells were seeded into 100 mm tissue culture plates (Sarstedt) (PANC1: 10^6 cells). After 24 h incubation, cells were treated with 1 µM of inhibitors or DMSO and were incubated for 4.5 h. Cells were washed twice with ice-cold PBS and then suspended in 1 mL PBS. Cells were collected and separated into equal volumes (100 µL). The aliquots were treated individually with different temperatures for 3 min, followed by a 3 min incubation at room temperature. Cell lysis was initiated by adding 100 µL RIPA buffer and 2 freeze-thaw cycles in liquid nitrogen. The lysates were centrifuged at 21,130×g for 20 min at room temperature. The supernatants were transferred into fresh, pre-cooled microcentrifuge tubes, and analyzed by western blot analysis as described above.

Akt3 [3] = biological target: T2, Akt3 (Homo sapiens, UniProt Q9Y243); test: as above; type: cell-based; set-up: purchased ProQinase #1578-0000-1; conditions: CETSA PANC1, 1 µM
Experimental: as §1

Ba/F3^myr-Akt1 cells = test: CellTiter-Glo cell viability assay; conditions: for cell viability: CTG
Ba/F3^myr-Akt2 cells = test: CellTiter-Glo cell viability assay; conditions: for cell viability: CTG
Experimental: On day 0, cells were plated into white 384-well cell culture plates (Greiner Bio-One) using a Multidrop reagent dispenser (Thermo Fisher Scientific) at cell numbers that ensure linear and optimal luminescent signal intensity (Ba/F3myr-Akt1: 600 cells/well, Ba/F3myr-Akt2: 800 cells/well, Ba/F3myr-Akt3: 800 cells/well). […] Cell viability was analyzed on day 4 using the CellTiter-Glo Assay (Promega) as per the manufacturer’s instructions. […] All experimental points were measured in duplicates for each plate and were replicated in at least three plates.

Ba/F3^myr-Akt3 cells = test: CellTiter-Glo cell viability assay; conditions: for cell viability: CTG
Akt2 [4] = biological target: T3, Akt2 (Homo sapiens, UniProt P31751); test: Cellular thermal shift assay (CETSA) in PANC1 cells; type: cell-based; set-up: purchased Thermo Fisher Scientific #PV3184; conditions: for tAkt2 %: CETSA PANC1, 1 µM
Experimental: as §1

Akt1 [5] = biological target: T1, Akt1; test: STK HTRF KinEASE activity-based assay (IC50)
Experimental: The biochemical half maximal inhibitory concentrations (IC50) were determined with the STK HTRF KinEASE assay (Cisbio) according to the manufactor’s instructions. Briefly: 5 µL Kinase solution and 2.5 µL inhibitor solution (8% DMSO in HTRF buffer) were incubated for 1 h before the reaction was started by addition of 2.5 µL starting solution containing ATP and substrate peptide. […] After reaction completion (Akt1: 60 min, Akt2: 20 min, Akt3: 15 min), 10 µL of stop solution were added. […] The quotient of both intensities were recorded at eight different inhibitor concentrations and data fit to a Hill 4-parameter equation with Quattro software suite (Quattro Research GmbH, Martinsried, Germany). Each reaction was performed in duplicates and at least three independent determinations of each IC50 were made.

Akt2 [6] = biological target: T3, Akt2; test: STK HTRF KinEASE activity-based assay (IC50)
Akt3 [7] = biological target: T2, Akt3; test: STK HTRF KinEASE activity-based assay (IC50)
[8] = cell viability assay Ba/F3 myr-Akt cells, log units

T3 sequence (P31751 whole entry): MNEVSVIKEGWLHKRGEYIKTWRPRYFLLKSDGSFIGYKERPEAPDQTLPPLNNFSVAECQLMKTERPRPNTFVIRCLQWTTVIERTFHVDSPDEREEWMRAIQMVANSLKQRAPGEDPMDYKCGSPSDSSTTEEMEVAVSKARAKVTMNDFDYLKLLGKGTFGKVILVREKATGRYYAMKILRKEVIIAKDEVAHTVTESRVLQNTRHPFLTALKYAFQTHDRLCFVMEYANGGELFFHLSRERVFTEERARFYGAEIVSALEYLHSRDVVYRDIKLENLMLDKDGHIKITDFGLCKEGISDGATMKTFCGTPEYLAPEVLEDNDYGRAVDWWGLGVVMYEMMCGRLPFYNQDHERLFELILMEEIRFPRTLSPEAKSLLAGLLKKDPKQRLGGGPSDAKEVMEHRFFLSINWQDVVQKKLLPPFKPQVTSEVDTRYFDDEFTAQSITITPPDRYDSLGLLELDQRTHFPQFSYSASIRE
T1 sequence (P31749 whole entry): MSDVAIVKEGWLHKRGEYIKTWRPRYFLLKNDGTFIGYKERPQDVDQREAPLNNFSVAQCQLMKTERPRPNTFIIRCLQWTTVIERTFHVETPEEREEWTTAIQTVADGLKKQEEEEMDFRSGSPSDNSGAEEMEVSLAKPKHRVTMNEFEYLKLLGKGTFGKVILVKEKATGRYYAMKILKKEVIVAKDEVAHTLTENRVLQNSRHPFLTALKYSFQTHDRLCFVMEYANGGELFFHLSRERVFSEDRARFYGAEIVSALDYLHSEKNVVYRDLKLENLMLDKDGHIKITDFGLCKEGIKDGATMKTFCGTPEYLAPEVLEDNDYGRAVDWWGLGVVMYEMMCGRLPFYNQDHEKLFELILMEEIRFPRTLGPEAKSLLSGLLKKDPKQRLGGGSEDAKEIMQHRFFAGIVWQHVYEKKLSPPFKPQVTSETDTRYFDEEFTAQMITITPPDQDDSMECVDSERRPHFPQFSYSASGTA
T2 sequence (Q9Y243 whole entry): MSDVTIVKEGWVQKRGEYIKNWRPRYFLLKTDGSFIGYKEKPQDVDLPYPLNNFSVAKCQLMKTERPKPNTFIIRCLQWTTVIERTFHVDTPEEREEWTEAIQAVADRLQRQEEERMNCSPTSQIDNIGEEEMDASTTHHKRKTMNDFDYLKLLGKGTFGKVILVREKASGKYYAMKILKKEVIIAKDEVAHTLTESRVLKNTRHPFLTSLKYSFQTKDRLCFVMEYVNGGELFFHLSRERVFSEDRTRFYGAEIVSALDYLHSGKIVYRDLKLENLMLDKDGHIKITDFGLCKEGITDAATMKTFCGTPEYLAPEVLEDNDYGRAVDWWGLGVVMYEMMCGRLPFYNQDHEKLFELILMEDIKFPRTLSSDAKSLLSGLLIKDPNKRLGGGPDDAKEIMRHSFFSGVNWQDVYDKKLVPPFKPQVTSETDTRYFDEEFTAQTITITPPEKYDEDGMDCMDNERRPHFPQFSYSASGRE

With `C=CC(=O)Nc1ccc2[nH]c(=O)n(C3CCN(Cc4ccc(-c5ncc(Cc6cn[nH]c6)cc5-c5ccccc5)cc4)CC3)c2c1` [compound 14] the viability at 3 days, 0.0001 µM ([1]; 0.1 nM, read-out: cell viability) was 101%, the viability at 3 days, 5 µM ([1]; 5000 nM) was 105% and the cell viability (parental Ba/F3 cells; 0.1 nM, single replicates, 0.0001 µM) was 100.0 % of control and 99.0 % of control. The cell viability (parental Ba/F3 cells; 5000 nM, single replicates, 5 µM) was 99.0 % of control and 97.0 % of control, the EC50 (parental Ba/F3 cells; Mus musculus, BaF3, parental cells, mean of replicates, read-out: CTG BaF3, Mean) was 8640 nM and the EC50 (parental Ba/F3 cells; Mus musculus, BaF3, parental cells, single replicates, read-out: CTG BaF3, individual determinations) was 8400 nM. The EC50 (parental Ba/F3 cells; parental cells, single replicates, read-out: CTG BaF3, individual determinations) was 7670 nM and 9860 nM, the “pAkt2 level (immunoblot)” value (pAkt2) was “efficient downregulation of Akt2 phosphorylation” and the tAkt1 % (Akt1 [2]; temperature 39.9) was 100.00%. It also gave a tAkt1 % (Akt1 [2]; temperature 43.5) of 52.07%, a tAkt1 % (Akt1 [2]; temperature 48.4) of 40.09% and a tAkt1 % (Akt1 [2]; temperature 53.8) of 35.60%. For the same compound, the tAkt1 % (Akt1 [2]; temperature 58.1) was 20.87%, the tAkt1 % (Akt1 [2]; temperature 61.4) was 22.87% and the tAkt1 % (Akt1 [2]; temperature 65.6) was 16.43%. It also gave a tAkt1 % (Akt1 [2]; temperature 70.9) of 3.87%, a tAkt1 % (Akt1 [2]; temperature 76) of 1.25% and a tAkt1 % (Akt1 [2]; temperature 79.9) of 0.00%. For the same compound, the tAkt3 % (Akt3 [3]; temperature 39.9) was 100.00%, the tAkt3 % (Akt3 [3]; temperature 43.5) was 108.88% and the tAkt3 % (Akt3 [3]; temperature 48.4) was 31.40%. It also gave a tAkt3 % (Akt3 [3]; temperature 53.8) of 28.60%, a tAkt3 % (Akt3 [3]; temperature 58.1) of 24.86% and a tAkt3 % (Akt3 [3]; temperature 61.4) of 22.71%. For the same compound, the tAkt3 % (Akt3 [3]; temperature 65.6) was 8.41%, the tAkt3 % (Akt3 [3]; temperature 70.9) was 4.62% and the tAkt3 % (Akt3 [3]; temperature 76) was 1.45%. The tAkt3 % (Akt3 [3]; temperature 79.9) was 0.00%, the cell viability (Ba/F3^myr-Akt1 cells; myr-Akt1, 0.1 nM, single replicates, 0.0001 µM) was 103.7 % of control and 102.7 % of control and the cell viability (Ba/F3^myr-Akt1 cells; myr-Akt1, 5000 nM, single replicates, 5 µM) was 79.7 % of control and 82.2 % of control. It also gave an EC50 (Ba/F3^myr-Akt1 cells; Mus musculus, read-out: CTG BaF3myr-Akt1, Mean, mean of replicates) of 7560 nM, an EC50 (Ba/F3^myr-Akt1 cells; Mus musculus, read-out: CTG BaF3myr-Akt1, individual determinations, single replicates) of 6920 nM and a viability at 0.0001 µM (Ba/F3^myr-Akt1 cells; Mus musculus, read-out: cell viability, CTG, myr-Akt1, 0.1 nM, single replicates) of 100%. For the same compound, the viability at 5 µM (Ba/F3^myr-Akt1 cells; Mus musculus, read-out: cell viability, CTG, myr-Akt1, 5000 nM, single replicates) was 71.9%, the “Log ratio EC50 [Akt] / EC50 [Akt], Akt1 / Akt2” value (Ba/F3^myr-Akt1 cells; [8]) was 1.15 and the EC50 (Ba/F3^myr-Akt1 cells; read-out: CTG BaF3myr-Akt1, individual determinations, single replicates) was 7890 nM and 7860 nM. For the same compound, the cell viability (Ba/F3^myr-Akt2 cells; myr-Akt2, 0.1 nM, single replicates, 0.0001 µM) was 101.1 % of control and 98.7 % of control, the cell viability (Ba/F3^myr-Akt2 cells; myr-Akt2, 5000 nM, single replicates, 5 µM) was 0.2 % of control and 0.55 % of control and 2.5 % of control and the EC50 (Ba/F3^myr-Akt2 cells; Mus musculus, read-out: CTG BaF3myr-Akt2, Mean, mean of replicates) was 529 nM. For the same compound, the viability at 0.0001 µM (Ba/F3^myr-Akt2 cells; Mus musculus, read-out: cell viability, CTG, myr-Akt2, 0.1 nM, single replicates) was 104%, the EC50 (Ba/F3^myr-Akt2 cells; read-out: CTG BaF3myr-Akt2, individual determinations, single replicates) was 932 nM and 277 nM and 378 nM and the cell viability (Ba/F3^myr-Akt3 cells; myr-Akt3, 0.1 nM, single replicates, 0.0001 µM) was 114.7 % of control and 87.0 % of control and 100.0 % of control. For the same compound, the cell viability (Ba/F3^myr-Akt3 cells; myr-Akt3, 5000 nM, single replicates, 5 µM) was 35.1 % of control and 52.3 % of control and 67.7 % of control, the EC50 (Ba/F3^myr-Akt3 cells; Mus musculus, read-out: CTG BaF3myr-Akt3, Mean, mean of replicates) was 4470 nM and the EC50 (Ba/F3^myr-Akt3 cells; Mus musculus, read-out: CTG BaF3myr-Akt3, individual determinations, single replicates) was 4320 nM. For the same compound, the “Log ratio EC50 [Akt] / EC50 [Akt], Akt3 / Akt2” value (Ba/F3^myr-Akt3 cells; [8]) was -0.93, the EC50 (Ba/F3^myr-Akt3 cells; read-out: CTG BaF3myr-Akt3, individual determinations, single replicates) was 4620 nM and 4470 nM and the tAkt2 % (Akt2 [4]; temperature 39.9) was 100.00%. It also gave a tAkt2 % (Akt2 [4]; temperature 43.5) of 102.39%, a tAkt2 % (Akt2 [4]; temperature 48.4) of 91.99% and a tAkt2 % (Akt2 [4]; temperature 53.8) of 80.16%. It also gave a tAkt2 % (Akt2 [4]; temperature 58.1) of 72.88%, a tAkt2 % (Akt2 [4]; temperature 61.4) of 43.24% and a tAkt2 % (Akt2 [4]; temperature 65.6) of 13.13%. For the same compound, the tAkt2 % (Akt2 [4]; temperature 70.9) was 8.83%, the tAkt2 % (Akt2 [4]; temperature 76) was 2.38% and the tAkt2 % (Akt2 [4]; temperature 79.9) was 0.00%. For the same compound, the “thermal stabilization of Akt2 (CETSA, in words)” value (Akt2 [4]; PANC1, 1 µM) was “significant thermal stabilization of Akt2”, the IC50 (Akt1 [5]; HTRF IC50 Akt1, Mean, mean of replicates) was 527 nM and the IC50 (Akt1 [5]; HTRF IC50 Akt1, individual determinations, single replicates) was 543 nM and 509 nM and 531 nM. For the same compound, the IC50 (Akt1 [5]; IC50 Akt1, HTRF, ATP at KM, 1 h preincubation) was 527 ± 14 nM, the “Log ratio IC50 [Akt] / IC50 [Akt], Akt1 / Akt2” value (Akt1 [5]; biochemical activity based assay, log units) was 1.35 and the IC50 (Akt2 [6]; HTRF IC50 Akt2, Mean, mean of replicates) was 23.9 nM. For the same compound, the IC50 (Akt2 [6]; HTRF IC50 Akt2, individual determinations, single replicates) was 21.3 nM and 30 nM and 19.2 nM and 20.5 nM, the IC50 (Akt2 [6]; IC50 Akt2, HTRF, ATP at KM, 1 h preincubation) was 23 ± 4 nM and the IC50 (Akt3 [7]; HTRF IC50 Akt3, Mean, mean of replicates) was 356 nM. For the same compound, the IC50 (Akt3 [7]; HTRF IC50 Akt3, individual determinations, single replicates) was 231 nM and 426 nM and 410 nM and the IC50 (Akt3 [7]; IC50 Akt3, HTRF, ATP at KM, 1 h preincubation) was 356 ± 88 nM.
